These results are taken from patent US20180273528A1 (LES LABORATOIRES SERVIER, priority 2015, published 2018).

Format in all cases: biochemical
What all share (conditions): full-length human kinase, 10 μM ATP

Experiment [1] addresses T1, CLK1 (Homo sapiens, UniProt P49759).
T1 construct: full-length human kinases from Carna Biosciences; purchased Carna Biosciences 04-126
The experiment in a line: Kinase TR-FRET assay, CLK1. An outline of the steps: (§1)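 Compounds tested at 0.1 nM to 30 μM in reaction buffer; reaction stopped with 10 mM EDTA. Phosphorylated MBP detected with 1 nM Europium-labelled anti-phospho-Thr232 antibody by TR-FRET.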

Experiment [2] concerns the target T2, CDK9 (Homo sapiens, UniProt P50750).
T2 construct: full-length human kinases from Carna Biosciences; purchased Carna Biosciences 04-110
Kind of experiment: Kinase TR-FRET assay, CDK9. An outline of the steps: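 Full-length human CDK9 (0.9 ng/μl) incubated 100 min at room temperature with 10 μM ATP, 100 nM ULight-MBP peptide and compound (0.1 nM–30 μM) in 50 mM HEPES pH 7.4, 1 mM EGTA, 10 mM MgCl2, 2 mM DTT, 0.01% Tween20. Stopped with 10 mM EDTA, then 1 nM Eu-anti-phospho-Thr232 MBP antibody added for 1 h. TR-FRET read at 665/620 nm with 340 nm excitation.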
A general note: In TR-FRET formats the signal depends on donor and acceptor labels being close together.

In experiment [3] the target is DYRK1A (Homo sapiens, UniProt Q13627). The experiment in a line: Kinase TR-FRET assay, DYRK1A. Further details: full-length, wild-type human DYRK1A (NM_001396) with an HA tag; expressed in transfected cells; host or cells: human U2-OS osteosarcoma cells, transient transfection of a pcDNA3.1 plasmid. An outline of the steps: as §1

Where only a bound is given, the exact number is not on record here.

T1 sequence (P49759 1-526 isoform P49759-3): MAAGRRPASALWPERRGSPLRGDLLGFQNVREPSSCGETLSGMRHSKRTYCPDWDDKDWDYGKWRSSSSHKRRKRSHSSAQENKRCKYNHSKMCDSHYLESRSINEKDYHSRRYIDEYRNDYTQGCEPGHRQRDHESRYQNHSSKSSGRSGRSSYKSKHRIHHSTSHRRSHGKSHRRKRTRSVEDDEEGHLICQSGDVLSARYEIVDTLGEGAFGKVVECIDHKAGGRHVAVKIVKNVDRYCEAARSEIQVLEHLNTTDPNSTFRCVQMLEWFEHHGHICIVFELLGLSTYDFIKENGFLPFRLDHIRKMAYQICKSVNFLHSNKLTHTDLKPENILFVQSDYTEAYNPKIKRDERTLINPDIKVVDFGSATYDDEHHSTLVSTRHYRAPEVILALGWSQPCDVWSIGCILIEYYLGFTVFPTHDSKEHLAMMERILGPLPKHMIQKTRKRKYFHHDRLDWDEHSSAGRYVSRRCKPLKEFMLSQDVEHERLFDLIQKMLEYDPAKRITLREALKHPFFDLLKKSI
T2 sequence (P50750 whole entry): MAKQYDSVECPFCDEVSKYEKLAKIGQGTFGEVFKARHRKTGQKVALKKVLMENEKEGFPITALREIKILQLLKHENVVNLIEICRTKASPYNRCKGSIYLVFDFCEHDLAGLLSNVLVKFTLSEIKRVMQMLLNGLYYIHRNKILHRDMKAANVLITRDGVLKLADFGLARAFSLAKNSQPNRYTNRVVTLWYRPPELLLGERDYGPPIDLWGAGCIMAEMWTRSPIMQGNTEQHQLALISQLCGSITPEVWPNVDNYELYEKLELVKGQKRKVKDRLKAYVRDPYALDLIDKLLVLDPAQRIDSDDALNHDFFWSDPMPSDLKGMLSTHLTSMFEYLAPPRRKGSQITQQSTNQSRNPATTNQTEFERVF
T2 sequence (O60563 whole entry partner): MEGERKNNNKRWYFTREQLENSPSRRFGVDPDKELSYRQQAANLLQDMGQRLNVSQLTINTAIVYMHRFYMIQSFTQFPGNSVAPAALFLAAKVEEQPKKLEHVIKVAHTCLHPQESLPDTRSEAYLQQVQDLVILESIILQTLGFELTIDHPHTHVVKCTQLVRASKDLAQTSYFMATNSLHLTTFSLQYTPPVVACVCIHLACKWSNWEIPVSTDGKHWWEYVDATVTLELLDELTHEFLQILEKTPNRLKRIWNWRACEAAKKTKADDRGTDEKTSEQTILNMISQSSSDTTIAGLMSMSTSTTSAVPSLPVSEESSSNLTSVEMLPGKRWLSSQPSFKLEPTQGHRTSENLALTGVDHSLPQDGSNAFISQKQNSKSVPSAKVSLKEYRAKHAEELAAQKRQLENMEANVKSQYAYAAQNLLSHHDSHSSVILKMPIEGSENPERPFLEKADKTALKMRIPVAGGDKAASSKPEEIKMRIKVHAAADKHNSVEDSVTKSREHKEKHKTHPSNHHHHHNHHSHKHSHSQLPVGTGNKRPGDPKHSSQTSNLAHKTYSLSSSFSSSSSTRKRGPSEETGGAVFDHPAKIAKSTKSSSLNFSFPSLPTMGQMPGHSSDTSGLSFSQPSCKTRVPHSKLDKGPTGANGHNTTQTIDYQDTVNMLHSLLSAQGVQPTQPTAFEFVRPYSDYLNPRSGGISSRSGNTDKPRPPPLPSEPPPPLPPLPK

Usually IC50 stands for the concentration that inhibits the measured activity by half. Higher therefore signals a need for much substance. As to `Cc1nc2ccc(-c3cc(N)nc(N)c3)nc2n1C[C@@H](C)Oc1ccccc1` (single isomer, unassigned) [Example 106], the IC50 is 0.019 µM in experiment [1], over 3 µM in experiment [2] and 0.008 µM in experiment [3].

`Cc1nc2ccc(-c3cc(N)nc(N)c3)nc2n1C1CC1` [Example 9, 4-(3-cyclopropyl-2-methyl-3H-imidazo[4,5-b]pyridin-5-yl)pyridine-2,6-diamine]: the half-inhibitory concentration (IC50) in experiment [1] was 0.021 µM; in experiment [2] it was 2.15 µM; in experiment [3], 0.011 µM.

For `Cc1nc2ccc(-c3cc(N)nc(N)c3)nc2n1Cc1ccoc1` [Example 42, 4-[3-(furan-3-ylmethyl)-2-methyl-3H-imidazo[4,5-b]pyridin-5-yl]pyridine-2,6-diamine], the results for the IC50 in experiment [1], in experiment [2] and in experiment [3] were 0.053 µM, 2.94 µM and 0.012 µM, respectively.

Consider `Cc1nc2ccc(-c3cc(N)nc(N)c3)nc2n1CCCC(F)(F)F` [Example 71, 4-[2-methyl-3-(4,4,4-trifluorobutyl)-3H-imidazo[4,5-b]pyridin-5-yl]pyridine-2,6-diamine], for which the figures for the IC50 in experiment [1], in experiment [2] and in experiment [3] were 0.016 µM, 1.41 µM and 0.006 µM, respectively.

Regarding `Cc1nc2ccc(-c3cc(N)nc(N)c3)nc2n1C1CC(F)(F)C1` [Example 101, 4-[3-(3,3-difluorocyclobutyl)-2-methyl-3H-imidazo[4,5-b]pyridin-5-yl]pyridine-2,6-diamine], the half-inhibitory concentration (IC50) in experiment [1] was found to be 0.016 µM; in experiment [2], 1.26 µM; in experiment [3], 0.003 µM.

Turning to `Cc1nc2ccc(-c3cc(N)nc(N)c3)nc2n1C1CC(F)C1` (stereo not drawn) [Example 103, 4-[3-(3-fluorocyclobutyl)-2-methyl-3H-imidazo[4,5-b]pyridin-5-yl]pyridine-2,6-diamine], the IC50 in experiment [1] was 0.015 µM; in experiment [2] it was 0.666 µM; in experiment [3], 0.006 µM.

`CCn1c(C)nc2ccc(-c3cc(N)nc(N)c3)nc21` [Example 154, 4-(3-ethyl-2-methyl-3H-imidazo[4,5-b]pyridin-5-yl)pyridine-2,6-diamine]: the IC50 turned out to be 0.023 µM in experiment [1], 3.39 µM in experiment [2] and 0.004 µM in experiment [3].
